Data as given in patent US20210292807A1, “METHOD FOR TESTING ANTIMICROBIAL SUSCEPTIBILITY” (priority 2017, published 2021).
In brackets after ≈: the same amount, converted by molar mass.

Tests used:
Staphylococcus aureus [1] = experiment: Broth microdilution (BMD) MIC of Staphylococcus aureus isolates; type: cell-based
From the text: The acoustic flow cytometry assisted method of the present invention was employed essentially as described in the previous working examples to determine susceptibility of Staphylococcus aureus to both cefoxitin and oxacillin. Susceptibility classification into S/NS and quantitative MIC values obtained using the acoustic flow cytometry assisted method were compared to results obtained using the conventional broth microdilution (BMD) method. Results are shown in Table 4 (Panels A and B) below and in FIGS. 9-12.

Staphylococcus aureus [2] = experiment: Acoustic flow cytometry-assisted susceptibility test (FAST) of Staphylococcus aureus isolates; type: cell-based; design: MIC dilution at which susceptibility-associated signature is observed by AFC: unit not given beside the values
Procedure: The material and methods utilized are briefly outlined herein below. The method used was similar to that outlined in the earlier examples albeit adjusted to allow for 3 hour incubation of Staphylococcus aureus to account for longer doubling times of Staphylococcus aureus relative to K. pneumoniae used in the previous examples.
Events were acquired by forward scatter and BL1 (515 nm-545 nm) using the Attune with voltages and thresholding set as follows: Forward Scatter Voltage: 3050; Forward Scatter Threshold: 3×1000 AND; Side Scatter Voltage: 2950; Side Scatter Threshold: IGNORE; BL1 Voltage: 1500; BL1 Threshold: 1×1000 AND.
Nine mL of MHB was aliquoted into twelve, 50 mL Falcon tubes. Each tube was labelled with the required final test concentration of antibiotic. […] Tubes were transferred to a 35° C. incubator to pre-warm.
One 1 mL of the overnight bacterial suspension was transferred into a 1.5 mL microcentrifuge tube and centrifuge at 7,800×g for about 5 minutes. The supernatant was discarded, and the pellet re-suspended in 1 mL of 0.1 μm filtered HBSS. This step was optionally repeat.
About 900 μL of HBSS was dispended into three 1.5 mL tubes—two clear tubes and one amber tube. About 100 μL of the bacterial suspension was inoculated into the first tube (clear) and serially dilute to reach 1:1000 by the third tube (amber). About 1 μl of SYTO 9 (5 μM final concentration) was added to the third tube. The dye was incubated, protected from light, for at least 5 minutes (individual sample types were optionally required with longer incubations) and then the Stained Control on the Attune acoustic flow cytometer instrument was read
The event density (events/μL) from your stained control aliquots was used to calculate the inoculum volume required to produce a 5.5×10^5 bacteria mL-1 in 10 mL of MHB. For example, (400 events/A)/(10 mL×550000)=7.3 μL, rounded up to the closest 10 μL.
The required volume of bacterial suspension was added from the overnight culture into each 50 ml tube with 9 ml of preheated MHB. Optionally incubate with shaking and protected from light, at 100 RPM at 35° C. for 60 minutes.
MHB (0.1 μm filtered) was used to dilute the antibiotics in this preparation. About one aliquot of antibiotic was removed from the −20° C. freezer and equilibrated to room temperature by ambient heat exchange, and diluted to reach a range of working stock concentrations that were are ten times the desired test concentrations.
Once the 60-minute incubation of bacterial suspension was complete, about 1 mL of 10× antibiotic stocks were added to tubes containing bacterial suspensions to reach final desired test concentrations (1 ml antibiotic and total volume 10 ml). The 50 mL tubes were returned to the incubator and incubated, by shaking at 100 RPM at 35° C., for a further 3 hours.
After 3 hours, about 1 mL suspension was harvested from each tube and transferred to a 1.5 mL clear microcentrifuge tube (marked with the corresponding antibiotic concentration), then centrifuge at 7,800×g for 5 minutes. The supernatant discarded and the pellet resuspended in 1 mL of 0.1 μm filtered HBSS. This wash step was optionally repeated.
Using the computer connected to the Attune, new samples were created ready for the collection of data. That the following parameters were set: Sensitivity: High Sensitivity; Flow Rate: 25 μL/minute; Acquisition Volume: 125 μL; Events Collected: No less than 20,000 from all gates, Time: 1 minute.
About 899 μL HBSS was dispensed into one 1.5 mL amber tube per sample. About 100 μL of suspension per tube was added to achieve a 1 in 10 dilution. About 1 μl of SYTO 9 was added to each tube and the tube vortexed for no more than 2 seconds (over vortexing can lead to bacterial clustering and/or attachment to tube walls).
Samples were placed on the SIP and acquired, in technical triplicate, as per the parameters outlined above. […]

[3] = S. aureus isolate ATCC 29213, MSSA
[4] = S. aureus isolate W0096111, MSSA
[5] = S. aureus isolate W0226111, MSSA
[6] = S. aureus isolate W0236111, MSSA
[7] = S. aureus isolate W0296111, MSSA
[8] = S. aureus isolate W0816111, MSSA
[9] = S. aureus isolate W0866111, MRSA
[10] = S. aureus isolate W6496111, MSSA
[11] = S. aureus isolate W9196111, MSSA
[12] = S. aureus isolate W9346111, MRSA
[13] = S. aureus isolate W . . . 6111, MRSA
[14] = S. aureus isolate WACC 98, MRSA

Compound | MIC (BMD) (Staphylococcus aureus [1]; [3]) | MIC (BMD) (Staphylococcus aureus [1]; [4]) | MIC (BMD) (Staphylococcus aureus [1]; [5]) | MIC (BMD) (Staphylococcus aureus [1]; [6]) | MIC (BMD) (Staphylococcus aureus [1]; [7]) | MIC (BMD) (Staphylococcus aureus [1]; [8]) | MIC (BMD) (Staphylococcus aureus [1]; [9]) | MIC (BMD) (Staphylococcus aureus [1]; [10]) | MIC (BMD) (Staphylococcus aureus [1]; [11]) | MIC (BMD) (Staphylococcus aureus [1]; [12]) | MIC (BMD) (Staphylococcus aureus [1]; [13]) | MIC (BMD) (Staphylococcus aureus [1]; [14]) | MIC dilution at which susceptibility-associated signature is observed by AFC (Staphylococcus aureus [2]; S. aureus ATCC 29213) | MIC dilution at which susceptibility-associated signature is observed by AFC (Staphylococcus aureus [2]; S. aureus WACC 98) | MIC (FAST) (Staphylococcus aureus [2]; [3]) | MIC (FAST) (Staphylococcus aureus [2]; [4]) | MIC (FAST) (Staphylococcus aureus [2]; [5]) | MIC (FAST) (Staphylococcus aureus [2]; [6]) | MIC (FAST) (Staphylococcus aureus [2]; [7]) | MIC (FAST) (Staphylococcus aureus [2]; [8]) | other results
CO[C@@]1(NC(=O)Cc2cccs2)C(=O)N2C(C(=O)O)=C(COC(N)=O)CS[C@@H]21 [Cefoxitin, cefoxitin] | 4 µg/mL | 2 µg/mL | 2 µg/mL | 2 µg/mL | 4 µg/mL | 2 µg/mL | 32 µg/mL | 4 µg/mL | 2 µg/mL | 32 µg/mL | 16 µg/mL | 128 µg/mL | 4 | 128 | 2 µg/mL (≈ 4.68 µM) | 4 µg/mL (≈ 9.36 µM) | 2 µg/mL (≈ 4.68 µM) | 4 µg/mL (≈ 9.36 µM) | 4 µg/mL (≈ 9.36 µM) | 2 µg/mL (≈ 4.68 µM) | MIC (FAST) (Staphylococcus aureus [2]; [9]): 16 µg/mL (≈ 37.4 µM); MIC (FAST) (Staphylococcus aureus [2]; [10]): 4 µg/mL (≈ 9.36 µM); MIC (FAST) (Staphylococcus aureus [2]; [11]): 4 µg/mL (≈ 9.36 µM); MIC (FAST) (Staphylococcus aureus [2]; [12]): 32 µg/mL (≈ 74.9 µM); MIC (FAST) (Staphylococcus aureus [2]; [13]): 16 µg/mL (≈ 37.4 µM); MIC (FAST) (Staphylococcus aureus [2]; [14]): 64 µg/mL (≈ 150 µM)
Cc1onc(-c2ccccc2)c1C(=O)N[C@@H]1C(=O)N2[C@@H]1SC(C)(C)[C@@H]2C(=O)O [Oxacillin, oxacillin] | 0.25 µg/mL | 0.25 µg/mL | 0.25 µg/mL | 0.25 µg/mL | 0.25 µg/mL | 0.25 µg/mL | 16 µg/mL | 1 µg/mL | 0.25 µg/mL | 32 µg/mL | 8 µg/mL | 256 µg/mL | 0.25 | 256 | ≤ 1 µg/mL | ≤ 1 µg/mL | ≤ 1 µg/mL | ≤ 1 µg/mL | ≤ 1 µg/mL | ≤ 1 µg/mL | MIC (FAST) (Staphylococcus aureus [2]; [9]): 16 µg/mL (≈ 39.9 µM); MIC (FAST) (Staphylococcus aureus [2]; [10]): 1 µg/mL (≈ 2.49 µM); MIC (FAST) (Staphylococcus aureus [2]; [11]): ≤ 1 µg/mL; MIC (FAST) (Staphylococcus aureus [2]; [12]): 32 µg/mL (≈ 79.7 µM); MIC (FAST) (Staphylococcus aureus [2]; [13]): 16 µg/mL (≈ 39.9 µM); MIC (FAST) (Staphylococcus aureus [2]; [14]): 256 µg/mL (≈ 638 µM); events remaining in Unexposed Cell Morphotype gate (FIG. 14B) (Staphylococcus aureus [2]; clinical methicillin resistant S. aureus WACC 98, at EUCAST breakpoint 8 mg/L): above the 10% threshold for MICFAST; events remaining in Unexposed Cell Morphotype gate (FIG. 14A) (Staphylococcus aureus [2]; control methicillin susceptible S. aureus ATCC 25912, oxacillin concentration range): remains below the 10% MICFAST threshold
